Measured values from ChEMBL document CHEMBL1201861, “Genomics of Drug Sensitity in Cancer screening data, Wellcome Trust Sanger Institute”.

How the values were obtained:
Test in all cases: cells
Type in all cases: functional, cell-based, Homo sapiens
DSH1 = settings: Homo sapiens, DSH1;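 note: growth inhibition of human DSH1 cells, measured with a cell viability readout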
Description: SANGER: Inhibition of human DSH1 cell growth in a cell viability assay.

NCI-H1650 = settings: Homo sapiens, NCI-H1650;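 note: growth inhibition of human NCI-H1650 cells measured by a cell viability assay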
Description: SANGER: Inhibition of human NCI-H1650 cell growth in a cell viability assay.

KURAMOCHI = settings: Homo sapiens, KURAMOCHI;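 note: growth inhibition of KURAMOCHI cells, read out with a cell viability assay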
Description: SANGER: Inhibition of human KURAMOCHI cell growth in a cell viability assay.

SF-539 = settings: Homo sapiens, SF-539;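 note: Read-out is a cell viability assay, with IC50 reflecting inhibition of cell growth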
Description: SANGER: Inhibition of human SF539 cell growth in a cell viability assay.

8-MG-BA = settings: Homo sapiens, 8-MG-BA;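 note: growth inhibition of 8-MG-BA cells, read out with a cell viability assay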
Description: SANGER: Inhibition of human 8-MG-BA cell growth in a cell viability assay.

EW-13 = settings: Homo sapiens, EW-13;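 note: growth inhibition of EW-13 cells, read out with a cell viability assay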
Description: SANGER: Inhibition of human EW-13 cell growth in a cell viability assay.

SK-MEL-1 = settings: Homo sapiens, SK-MEL-1;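 note: growth inhibition of human SK-MEL-1 cells, read out by a cell viability assay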
Description: SANGER: Inhibition of human SK-MEL-1 cell growth in a cell viability assay.

CAS-1 = settings: Homo sapiens, CAS-1;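 note: growth inhibition of CAS-1 cells, measured with a cell viability assay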
Description: SANGER: Inhibition of human CAS-1 cell growth in a cell viability assay.

SCH = settings: Homo sapiens, SCH;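 note: growth inhibition of human SCH cells, read out in a cell viability assay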
Description: SANGER: Inhibition of human SCH cell growth in a cell viability assay.

HCE-T = settings: Homo sapiens, HCE-T;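 note: cell viability assay read-out, reporting inhibition of HCE-T cell growth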
Description: SANGER: Inhibition of human HCE-T cell growth in a cell viability assay.

RS4-11 = settings: Homo sapiens, RS4-11;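 note: growth inhibition of RS4-11 cells, read out by a cell viability assay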
Description: SANGER: Inhibition of human RS4-11 cell growth in a cell viability assay.

COLO-829 = settings: Homo sapiens, COLO-829
Description: SANGER: Inhibition of human COLO-829 cell growth in a cell viability assay.

KM-H2 = settings: Homo sapiens, KM-H2;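 note: growth inhibition of KM-H2 cells, read out by a cell viability assay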
Description: SANGER: Inhibition of human KM-H2 cell growth in a cell viability assay.

KARPAS-45 = settings: Homo sapiens, KARPAS-45;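 note: inhibition of cell line growth, read out through a viability assay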
Description: SANGER: Inhibition of human KARPAS-45 cell growth in a cell viability assay.

LS-1034 = settings: Homo sapiens, LS-1034
Description: SANGER: Inhibition of human LS-1034 cell growth in a cell viability assay.

NCI-H1395 = settings: Homo sapiens, NCI-H1395;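 note: cell viability assay read-out quantifying reduced proliferation of human NCI-H1395 cells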
Description: SANGER: Inhibition of human NCI-H1395 cell growth in a cell viability assay.

OCUB-M = settings: Homo sapiens, OCUB-M;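 note: growth inhibition of the cancer cell line, read out through a cell viability assay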
Description: SANGER: Inhibition of human OCUB-M cell growth in a cell viability assay.

BB49-HNC = settings: Homo sapiens, BB49-HNC;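 note: cell viability assay read-out, reported as inhibition of BB49-HNC cell growth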
Description: SANGER: Inhibition of human BB49-HNC cell growth in a cell viability assay.

RPMI-8866 = settings: Homo sapiens, RPMI-8866
Description: SANGER: Inhibition of human RPMI-8866 cell growth in a cell viability assay.

KNS-81-FD = settings: Homo sapiens, KNS-81-FD;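 note: growth inhibition of KNS-81-FD cells, read out with a cell viability assay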
Description: SANGER: Inhibition of human KNS-81-FD cell growth in a cell viability assay.

NOS-1 = settings: Homo sapiens, NOS-1;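 note: growth inhibition of the human NOS-1 cell line, read out with a cell viability assay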
Description: SANGER: Inhibition of human NOS-1 cell growth in a cell viability assay.

LS-513 = settings: Homo sapiens, LS-513
Description: SANGER: Inhibition of human LS-513 cell growth in a cell viability assay.

NB10 = settings: Homo sapiens, NB10;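 note: growth inhibition of NB10 cells, read out by a cell viability assay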
Description: SANGER: Inhibition of human NB10 cell growth in a cell viability assay.

MOLT-4 = settings: Homo sapiens, MOLT-4;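 note: growth inhibition of MOLT-4 cells, determined with a cell viability readout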
Description: SANGER: Inhibition of human MOLT-4 cell growth in a cell viability assay.

LU-134-A = settings: Homo sapiens, LU-134-A
Description: SANGER: Inhibition of human LU-134-A cell growth in a cell viability assay.

NCI-H82 = settings: Homo sapiens, NCI-H82;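 note: growth inhibition of NCI-H82 cells, measured with a cell viability readout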
Description: SANGER: Inhibition of human NCI-H82 cell growth in a cell viability assay.

IST-MEL1 = settings: Homo sapiens, IST-MEL1;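 note: growth inhibition of the cell line, read out with a cell viability assay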
Description: SANGER: Inhibition of human IST-MEL1 cell growth in a cell viability assay.

COLO-668 = settings: Homo sapiens, COLO-668
Description: SANGER: Inhibition of human COLO-668 cell growth in a cell viability assay.

Mo = settings: Homo sapiens, Mo
Description: SANGER: Inhibition of human Mo-T cell growth in a cell viability assay.

SF-268 = settings: Homo sapiens, SF-268;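 note: growth inhibition of SF-268 cells determined with a cell viability assay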
Description: SANGER: Inhibition of human SF268 cell growth in a cell viability assay.

TGBC1TKB = settings: Homo sapiens, TGBC1TKB;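 note: growth inhibition of TGBC1TKB cells, read out by a cell viability assay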
Description: SANGER: Inhibition of human TGBC1TKB cell growth in a cell viability assay.

KE-37 = settings: Homo sapiens, KE-37;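 note: growth inhibition of KE-37 cells, read out with a cell viability assay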
Description: SANGER: Inhibition of human KE-37 cell growth in a cell viability assay.

ES6 = settings: Homo sapiens, ES6;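 note: growth inhibition of human ES6 cells, read out with a cell viability assay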
Description: SANGER: Inhibition of human ES6 cell growth in a cell viability assay.

KG-1 = settings: Homo sapiens, KG-1;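 note: growth inhibition of KG-1 cells, read out by a cell viability assay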
Description: SANGER: Inhibition of human KG-1 cell growth in a cell viability assay.

JVM-2 = settings: Homo sapiens, JVM-2;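 note: growth inhibition of JVM-2 cells determined by a cell viability assay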
Description: SANGER: Inhibition of human JVM-2 cell growth in a cell viability assay.

MS-1 = settings: Homo sapiens, MS-1;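 note: growth inhibition of MS-1 cells, read out by cell viability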
Description: SANGER: Inhibition of human MS-1 cell growth in a cell viability assay.

QIMR-WIL = settings: Homo sapiens, QIMR-WIL;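 note: growth inhibition of QIMR-WIL cells, read out with a cell viability assay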
Description: SANGER: Inhibition of human QIMR-WIL cell growth in a cell viability assay.

U-266 = settings: Homo sapiens, U-266
Description: SANGER: Inhibition of human U-266 cell growth in a cell viability assay.

NOMO-1 = settings: Homo sapiens, NOMO-1;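 note: growth inhibition of human NOMO-1 cells measured by a cell viability assay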
Description: SANGER: Inhibition of human NOMO-1 cell growth in a cell viability assay.

HCC2157 = settings: Homo sapiens, HCC2157;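 note: growth inhibition of the cancer cell line, read out as cell viability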
Description: SANGER: Inhibition of human HCC2157 cell growth in a cell viability assay.

A4-Fuk = settings: Homo sapiens, A4-Fuk;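 note: growth inhibition of A4-Fuk cells, read out by a cell viability assay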
Description: SANGER: Inhibition of human A4-Fuk cell growth in a cell viability assay.

HCE-4 = settings: Homo sapiens, HCE-4;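 note: cell viability assay measuring inhibition of growth in the human HCE-4 cell line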
Description: SANGER: Inhibition of human HCE-4 cell growth in a cell viability assay.

ETK-1 = settings: Homo sapiens, ETK-1;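 note: growth inhibition of human ETK-1 cells, read out with a cell viability assay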
Description: SANGER: Inhibition of human ETK-1 cell growth in a cell viability assay.

NCI-H1770 = settings: Homo sapiens, NCI-H1770;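 note: growth inhibition of NCI-H1770 cells determined with a viability readout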
Description: SANGER: Inhibition of human NCI-H1770 cell growth in a cell viability assay.

BB30-HNC = settings: Homo sapiens, BB30-HNC;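 note: growth inhibition of the cultured cell line, read out by a cell viability assay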
Description: SANGER: Inhibition of human BB30-HNC cell growth in a cell viability assay.

RXF 393 = settings: Homo sapiens, RXF 393;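 note: growth inhibition of human RXF 393 cells, read out with a cell viability assay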
Description: SANGER: Inhibition of human RXF393 cell growth in a cell viability assay.

LB771-HNC = settings: Homo sapiens, LB771-HNC;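 note: growth inhibition of LB771-HNC human cells, read out with a cell viability assay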
Description: SANGER: Inhibition of human LB771-HNC cell growth in a cell viability assay.

TE-6 = settings: Homo sapiens, TE-6;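 note: growth inhibition of TE-6 cells, read out with a cell viability assay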
Description: SANGER: Inhibition of human TE-6 cell growth in a cell viability assay.

COc1cc2c(Nc3ccc(NC(=O)c4ccccc4)cc3)ncnc2cc1OCCCN1CCOCC1
IC50 (DSH1): > 4 µM | IC50 (NCI-H1650): > 4 µM | IC50 (KURAMOCHI): > 4 µM | IC50 (SF-539): > 4 µM | IC50 (8-MG-BA): > 4 µM | IC50 (EW-13): > 4 µM | IC50 (SK-MEL-1): > 4 µM | IC50 (CAS-1): > 4 µM | IC50 (SCH): > 4 µM | IC50 (HCE-T): > 4 µM | IC50 (RS4-11): 0.554 µM | IC50 (COLO-829): 2.64 µM | IC50 (KM-H2): > 4 µM | IC50 (KARPAS-45): 0.381 µM | IC50 (LS-1034): > 4 µM | IC50 (NCI-H1395): > 4 µM | IC50 (OCUB-M): 2.25 µM | IC50 (BB49-HNC): > 4 µM | IC50 (RPMI-8866): > 4 µM | IC50 (KNS-81-FD): > 4 µM | IC50 (NOS-1): > 4 µM | IC50 (LS-513): > 4 µM | IC50 (NB10): > 4 µM | IC50 (MOLT-4): 0.9 µM | IC50 (LU-134-A): > 4 µM | IC50 (NCI-H82): > 4 µM | IC50 (IST-MEL1): > 4 µM | IC50 (COLO-668): > 4 µM | IC50 (Mo): > 4 µM | IC50 (SF-268): > 4 µM | IC50 (TGBC1TKB): > 4 µM | IC50 (KE-37): 1.21 µM | IC50 (ES6): > 4 µM | IC50 (KG-1): 3.2 µM | IC50 (JVM-2): > 4 µM | IC50 (MS-1): > 4 µM | IC50 (QIMR-WIL): 2.06 µM | IC50 (U-266): 2.84 µM | IC50 (NOMO-1): 1.37 µM | IC50 (HCC2157): > 4 µM | IC50 (A4-Fuk): 3.77 µM | IC50 (HCE-4): > 4 µM | IC50 (ETK-1): > 4 µM | IC50 (NCI-H1770): > 4 µM | IC50 (BB30-HNC): 2.54 µM | IC50 (RXF 393): 3.49 µM | IC50 (LB771-HNC): > 4 µM | IC50 (TE-6): > 4 µM

CC(C)CCN1c2nc(Nc3cc(F)c(O)c(F)c3)ncc2N(C)C(=O)C1C (centres undefined)
IC50 (DSH1): > 5 µM | IC50 (NCI-H1650): > 5 µM | IC50 (KURAMOCHI): > 5 µM | IC50 (SF-539): > 5 µM | IC50 (8-MG-BA): 2.23 µM | IC50 (EW-13): > 5 µM | IC50 (SK-MEL-1): > 5 µM | IC50 (CAS-1): > 5 µM | IC50 (SCH): > 5 µM | IC50 (HCE-T): > 5 µM | IC50 (RS4-11): > 5 µM | IC50 (COLO-829): 3.67 µM | IC50 (KM-H2): > 5 µM | IC50 (KARPAS-45): 0.165 µM | IC50 (LS-1034): > 5 µM | IC50 (NCI-H1395): 2.47 µM | IC50 (OCUB-M): > 5 µM | IC50 (BB49-HNC): > 5 µM | IC50 (RPMI-8866): > 5 µM | IC50 (KNS-81-FD): > 5 µM | IC50 (NOS-1): > 5 µM | IC50 (LS-513): > 5 µM | IC50 (NB10): 1.78 µM | IC50 (MOLT-4): 3.39 µM | IC50 (LU-134-A): 3.95 µM | IC50 (NCI-H82): > 5 µM | IC50 (IST-MEL1): > 5 µM | IC50 (COLO-668): > 5 µM | IC50 (Mo): > 5 µM | IC50 (SF-268): 2.87 µM | IC50 (TGBC1TKB): > 5 µM | IC50 (KE-37): 1.59 µM | IC50 (ES6): > 5 µM | IC50 (KG-1): 3.61 µM | IC50 (JVM-2): > 5 µM | IC50 (MS-1): > 5 µM | IC50 (QIMR-WIL): 2.08 µM | IC50 (U-266): 4.61 µM | IC50 (NOMO-1): > 5 µM | IC50 (HCC2157): > 5 µM | IC50 (A4-Fuk): > 5 µM | IC50 (HCE-4): > 5 µM | IC50 (ETK-1): 4.36 µM | IC50 (NCI-H1770): > 5 µM | IC50 (BB30-HNC): > 5 µM | IC50 (RXF 393): > 5 µM | IC50 (LB771-HNC): > 5 µM | IC50 (TE-6): > 5 µM

CC1(C)CNc2cc(NC(=O)c3cccnc3NCc3ccncc3)ccc21 [MOTESANIB]
IC50 (DSH1): > 2 µM | IC50 (NCI-H1650): > 2 µM | IC50 (KURAMOCHI): > 2 µM | IC50 (SF-539): > 2 µM | IC50 (8-MG-BA): > 2 µM | IC50 (EW-13): > 2 µM | IC50 (SK-MEL-1): > 2 µM | IC50 (CAS-1): > 2 µM | IC50 (SCH): > 2 µM | IC50 (HCE-T): > 2 µM | IC50 (RS4-11): > 2 µM | IC50 (COLO-829): > 2 µM | IC50 (KM-H2): > 2 µM | IC50 (KARPAS-45): > 2 µM | IC50 (LS-1034): > 2 µM | IC50 (NCI-H1395): > 2 µM | IC50 (OCUB-M): > 2 µM | IC50 (BB49-HNC): > 2 µM | IC50 (RPMI-8866): > 2 µM | IC50 (KNS-81-FD): > 2 µM | IC50 (NOS-1): > 2 µM | IC50 (LS-513): > 2 µM | IC50 (NB10): > 2 µM | IC50 (MOLT-4): > 2 µM | IC50 (LU-134-A): > 2 µM | IC50 (NCI-H82): > 2 µM | IC50 (IST-MEL1): > 2 µM | IC50 (COLO-668): > 2 µM | IC50 (Mo): > 2 µM | IC50 (SF-268): > 2 µM | IC50 (TGBC1TKB): > 2 µM | IC50 (KE-37): > 2 µM | IC50 (ES6): > 2 µM | IC50 (KG-1): > 2 µM | IC50 (JVM-2): > 2 µM | IC50 (MS-1): > 2 µM | IC50 (QIMR-WIL): > 2 µM | IC50 (U-266): > 2 µM | IC50 (NOMO-1): > 2 µM | IC50 (HCC2157): > 2 µM | IC50 (A4-Fuk): > 2 µM | IC50 (HCE-4): > 2 µM | IC50 (ETK-1): > 2 µM | IC50 (NCI-H1770): > 2 µM | IC50 (BB30-HNC): > 2 µM | IC50 (RXF 393): > 2 µM | IC50 (LB771-HNC): > 2 µM | IC50 (TE-6): > 2 µM
